Experimental data taken from patent US5602099A, “δ opioid receptor antagonists” (Aktiebolaget Astra, priority 1993, dated 1997).
Read-outs that look alike come from different tables or passages of the source.

What was measured:
δ opioid receptors = molecular target: T1, δ opioid receptors (Mus musculus, UniProt P32300); test: Mouse vas deferens (MVD) bioassay, antagonism of electrically evoked contraction inhibition by δ-selective agonists; format: tissue-based; settings: MVD assay, means of 3-8 determinations
T1 construct: Bioassays Using Isolated Organ Preparations; from tissue; host or cells: mouse vas deferens (isolated organ)
Source text: (§1) a) Biosassys based on inhibition of electrically evoked contractions of the mouse vas deferens (MVD) and of the guinea pig ileum (GPI). In the GPI assay the opioid effect is primarily mediated by μ opioid receptors, whereas in the MVD assay the inhibition of the contractions is mostly due to interaction with δ opioid receptors.
(§2) The GPI and MVD bioassays were carded out as reported in P. W. Schiller et al., Biochem. Biophys. Res. Commun 85, 1332-1338 (1978) and J. Di Maio et al., J. Med. Chem. 25, 1432-1438 (1982). A log dose-response curve was determind with [Leu^5 ]enkephalin as standard for each ileum and vas preparation, and IC50 values of the compounds being tested were normalized according to A. A Waterfield et al., Eur. J. Pharmacol. 58, 11-18 (1979). […] These determinations were made with the MVD assay, using three different δ-selective agonists ([Leu^5 ] enkephalin, DPDPE and [D-Ala^2 ]deltorphin I].

μ opioid receptors [1] = molecular target: T2, μ opioid receptors (Cavia porcellus, UniProt P97266); test: Guinea pig ileum (GPI) bioassay, inhibition of electrically evoked contractions; format: cell-based; settings: agonist potency
Source text: as §1, §2

μ opioid receptors [2] = molecular target: T2, μ opioid receptors; settings: literature value; cited from earlier work
[3] = Ke (nM) against [Leu5]Enkephalin, δ agonist [Leu5]enkephalin

T1 sequence (P32300 whole entry): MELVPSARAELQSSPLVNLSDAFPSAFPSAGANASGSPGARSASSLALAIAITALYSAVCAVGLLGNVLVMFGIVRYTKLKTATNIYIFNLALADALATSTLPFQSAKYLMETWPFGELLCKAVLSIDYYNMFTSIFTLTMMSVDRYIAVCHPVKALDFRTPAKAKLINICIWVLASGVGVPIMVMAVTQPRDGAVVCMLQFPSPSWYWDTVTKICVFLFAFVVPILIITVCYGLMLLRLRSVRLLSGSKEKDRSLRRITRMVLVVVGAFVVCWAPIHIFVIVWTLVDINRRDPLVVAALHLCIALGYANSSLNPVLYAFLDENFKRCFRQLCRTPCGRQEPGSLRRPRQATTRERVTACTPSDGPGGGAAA
T2 sequence (P97266 whole entry, looked up): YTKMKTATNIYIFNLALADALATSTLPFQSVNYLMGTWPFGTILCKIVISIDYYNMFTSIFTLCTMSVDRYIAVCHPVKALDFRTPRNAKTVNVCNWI

| SMILES | Kb (δ opioid receptors; Ke (nM) against DPDPE, δ agonist DPDPE) | Kb (δ opioid receptors; Ke (nM) against [D-Ala2]deltorphin I, δ agonist [D-Ala2]deltorphin I) | Kb (δ opioid receptors; [3]) | IC50 (μ opioid receptors [1]) | Kb (δ opioid receptors; δ agonist DPDPE, read-out: Ke (nM) against DPDPE) | Kb (δ opioid receptors; δ agonist [D-Ala2]deltorphin I, read-out: Ke (nM) against [D-Ala2]deltorphin I) | Ke (μ antagonist) in the guinea pig ileum (GPI) assay (μ opioid receptors [2]) |
| --- | --- | --- | --- | --- | --- | --- | --- |
| Cc1cc(O)cc(C)c1C[C@H](N)C(=O)N1Cc2ccccc2C[C@H]1CN[C@@H](Cc1ccccc1)C(=O)N[C@@H](Cc1ccccc1)C(N)=O [HDmtTic.psi.[CH2NH]PhePheNH2, H-Dmt-Tic.PSI.[CH2 --NH]Phe-Phe-NH2] | 0.42 nM | 0.486 nM | 0.47 nM | 7.71 nM | – | – | – |
| Oc1ccc2c3c1O[C@H]1c4[nH]c5ccccc5c4C[C@@]4(O)[C@@H](C2)N(CC2CC2)CC[C@]314 [Naltrindole, naltrindole, reference compound] | – | – | 0.85 nM | – | 0.632 nM | 0.636 nM | 29 nM |
